Patent US20160009693A1, “HERBICIDAL COMPOUNDS” (SYNGENTA LIMITED, priority 2013, published 2016)

How the values were obtained:
Type in all cases: in vivo
Conditions in all cases: applied at 1000 g/h, evaluated after 13 days
[1] = system: Amaranthus retoflexus (AMARE); test: Herbicidal glasshouse test, pre-emergence, AMARE
Method: (§1) Seeds of a variety of test species are sown in standard soil in pots (Alopecurus myosuroides (ALOMY), Setaria faberi (SETFA), Echinochloa crus-galli (ECHCG), Solanum nigrum (SOLNI), Amaranthus retoflexus (AMARE), Ipomoea hederacea (IPOHE)). After cultivation for one day (pre-emergence) or after 8 days cultivation (post-emergence) under controlled conditions in a glasshouse (at 24/16° C., day/night; 14 hours light; 65% humidity), the plants are sprayed with an aqueous spray solution derived from the formulation of the technical active ingredient in acetone / water (50:50) solution containing 0.5% Tween 20 (polyoxyethelyene sorbitan monolaurate, CAS RN 9005-64-5). […] The test plants are then grown in a glasshouse under controlled conditions in a glasshouse (at 24/16° C., day/night; 14 hours light; 65% humidity) and watered twice daily. After 13 days for pre and post-emergence, the test is evaluated for the percentage damage caused to the plant. The biological activities are shown in the following table on a five point scale (5=80-100%; 4=60-79%; 3=40-59%; 2=20-39%; 1=0-19%).

Solanum nigrum (SOLNI) [2] = test: Herbicidal glasshouse test, pre-emergence, SOLNI
Method: as §1

[3] = system: Ipomoea hederacea (IPOHE); test: Herbicidal glasshouse test, post-emergence, IPOHE
Method: as §1

[4] = system: Echinochloa crus-galli (ECHCG); test: Herbicidal glasshouse test, pre-emergence, ECHCG
Method: as §1

Setaria faberi (SETFA) [5] = test: Herbicidal glasshouse test, post-emergence, SETFA
Method: as §1

Solanum nigrum (SOLNI) [6] = test: Herbicidal glasshouse test, post-emergence, SOLNI
Method: as §1

[7] = system: Alopecurus myosuroides (ALOMY); test: Herbicidal glasshouse test, post-emergence, ALOMY
Method: as §1

Setaria faberi (SETFA) [8] = test: Herbicidal glasshouse test, pre-emergence, SETFA
Method: as §1

[9] = system: Echinochloa crus-galli (ECHCG); test: Herbicidal glasshouse test, post-emergence, ECHCG
Method: as §1

[10] = system: Ipomoea hederacea (IPOHE); test: Herbicidal glasshouse test, pre-emergence, IPOHE
Method: as §1

[11] = system: Amaranthus retoflexus (AMARE); test: Herbicidal glasshouse test, post-emergence, AMARE
Method: as §1

[12] = system: Alopecurus myosuroides (ALOMY); test: Herbicidal glasshouse test, pre-emergence, ALOMY
Method: as §1

Row | Compound | PRE Application AMARE, percentage damage (five point scale) [1] | PRE Application SOLNI, percentage damage (five point scale) (Solanum nigrum (SOLNI) [2]) | POST Application IPOHE, percentage damage (five point scale) [3] | PRE Application ECHCG, percentage damage (five point scale) [4] | POST Application SETFA, percentage damage (five point scale) (Setaria faberi (SETFA) [5]) | POST Application SOLNI, percentage damage (five point scale) (Solanum nigrum (SOLNI) [6]) | POST Application ALOMY, percentage damage (five point scale) [7] | PRE Application SETFA, percentage damage (five point scale) (Setaria faberi (SETFA) [8]) | POST Application ECHCG, percentage damage (five point scale) [9] | PRE Application IPOHE, percentage damage (five point scale) [10] | POST Application AMARE, percentage damage (five point scale) [11] | PRE Application ALOMY, percentage damage (five point scale) [12]
1 | Cn1nnnc1NC(=O)c1nn(C)c(=O)n(-c2cccc(Cl)c2)c1=O [Compound 1.019] | 5 (5=80-100%) | 5 (5=80-100%) | 5 (5=80-100%) | 5 (5=80-100%) | 5 (5=80-100%) | 5 (5=80-100%) | 5 (5=80-100%) | 5 (5=80-100%) | 5 (5=80-100%) | 5 (5=80-100%) | 5 (5=80-100%) | 5 (5=80-100%)
2 | Cn1nnnc1NC(=O)c1nn(C)c(=O)n(-c2ccccc2F)c1=O [Compound 1.020] | 5 (5=80-100%) | 5 (5=80-100%) | 5 (5=80-100%) | 5 (5=80-100%) | 5 (5=80-100%) | 5 (5=80-100%) | 5 (5=80-100%) | 5 (5=80-100%) | 5 (5=80-100%) | 5 (5=80-100%) | 5 (5=80-100%) | 5 (5=80-100%)
3 | Cn1nnnc1NC(=O)c1nn(C)c(=O)n(-c2ccc(F)cc2Cl)c1=O [Compound 1.021] | 5 (5=80-100%) | 5 (5=80-100%) | 5 (5=80-100%) | 5 (5=80-100%) | 5 (5=80-100%) | 5 (5=80-100%) | 5 (5=80-100%) | 5 (5=80-100%) | 5 (5=80-100%) | 5 (5=80-100%) | 5 (5=80-100%) | 5 (5=80-100%)
4 | Cn1nnnc1NC(=O)c1nn(C)c(=O)n(Cc2ccccc2)c1=O [Compound 1.022] | 5 (5=80-100%) | 5 (5=80-100%) | 5 (5=80-100%) | 5 (5=80-100%) | 4 (4=60-79%) | 5 (5=80-100%) | 4 (4=60-79%) | 3 (3=40-59%) | 5 (5=80-100%) | 4 (4=60-79%) | 5 (5=80-100%) | 5 (5=80-100%)
5 | COCCOc1ccc(-n2c(=O)c(C(=O)Nc3nnnn3C)nn(C)c2=O)cc1 [Compound 1.023] | 5 (5=80-100%) | 5 (5=80-100%) | 5 (5=80-100%) | 5 (5=80-100%) | 5 (5=80-100%) | 5 (5=80-100%) | 5 (5=80-100%) | 5 (5=80-100%) | 5 (5=80-100%) | 5 (5=80-100%) | 5 (5=80-100%) | 5 (5=80-100%)
6 | Cn1nnnc1NC(=O)c1nn(C)c(=O)n(-c2ccc(Cl)cc2)c1=O [Compound 1.024] | 5 (5=80-100%) | 5 (5=80-100%) | 5 (5=80-100%) | 5 (5=80-100%) | 5 (5=80-100%) | 5 (5=80-100%) | 5 (5=80-100%) | 5 (5=80-100%) | 5 (5=80-100%) | 5 (5=80-100%) | 5 (5=80-100%) | 5 (5=80-100%)
7 | Cc1cccc(-n2c(=O)c(C(=O)Nc3nnnn3C)nn(C)c2=O)c1 [Compound 1.025] | 5 (5=80-100%) | 5 (5=80-100%) | 5 (5=80-100%) | 5 (5=80-100%) | 5 (5=80-100%) | 5 (5=80-100%) | 5 (5=80-100%) | 5 (5=80-100%) | 5 (5=80-100%) | 5 (5=80-100%) | 5 (5=80-100%) | 5 (5=80-100%)
8 | Cc1ccc(-n2c(=O)c(C(=O)Nc3nnnn3C)nn(C)c2=O)cc1C [Compound 1.026] | 5 (5=80-100%) | 5 (5=80-100%) | 5 (5=80-100%) | 5 (5=80-100%) | 5 (5=80-100%) | 5 (5=80-100%) | 5 (5=80-100%) | 5 (5=80-100%) | 5 (5=80-100%) | 5 (5=80-100%) | 5 (5=80-100%) | 5 (5=80-100%)
9 | Cn1nnnc1NC(=O)c1nn(C)c(=O)n(-c2ccc(Br)cc2)c1=O [Compound 1.027] | 5 (5=80-100%) | 5 (5=80-100%) | 5 (5=80-100%) | 5 (5=80-100%) | 5 (5=80-100%) | 5 (5=80-100%) | 5 (5=80-100%) | 5 (5=80-100%) | 5 (5=80-100%) | 5 (5=80-100%) | 5 (5=80-100%) | 5 (5=80-100%)
